Measurements published in the NIST ThermoML archive (doi:10.1021/je060390q).

Key:
[1] = xn = mol fraction of the nth substance listed; conditions: Maximal bubble pressure
[2] = Maximal bubble pressure

Cc1cccc(C)c1 [1,3-dimethylbenzene] + CC(=O)O
surface tension liquid-gas [mN/m], [1]
Conditions | x2 = 0 | x2 = 0.1001 | x2 = 0.2001 | x2 = 0.3 | x2 = 0.4188 | x2 = 0.4999 | x2 = 0.5999 | x2 = 0.7018 | x2 = 0.7999 | x2 = 0.9
303.15 K | 27.58 | 27.51 | 27.4 | 27.3 | 27.17 | 27.07 | 26.95 | 26.87 | 26.71 | 26.56
308.15 K | 27.04 | 26.97 | 26.87 | 26.77 | 26.63 | 26.55 | 26.47 | 26.36 | 26.19 | 26.06
313.15 K | 26.49 | 26.42 | 26.33 | 26.24 | 26.1 | 26.03 | 25.95 | 25.84 | 25.68 | 25.56
318.15 K | 25.94 | 25.88 | 25.78 | 25.69 | 25.58 | 25.5 | 25.42 | 25.32 | 25.17 | 25.04
323.15 K | 25.38 | 25.32 | 25.24 | 25.15 | 25.04 | 24.98 | 24.9 | 24.76 | 24.65 | 24.55
333.15 K | 24.27 | 24.23 | 24.16 | 24.08 | 23.98 | 23.92 | 23.85 | 23.74 | 23.65 | 23.55
343.15 K | 23.18 | 23.15 | 23.08 | 23.02 | 22.93 | 22.88 | 22.82 | 22.72 | 22.63 | 22.55

CC(=O)O [acetic acid]
[2]
Conditions | surface tension liquid-gas [mN/m]
303.15 K | 26.4
308.15 K | 25.91
313.15 K | 25.41
318.15 K | 24.91
323.15 K | 24.42
333.15 K | 23.44
343.15 K | 22.45

CC(=O)O [acetic acid] + Cc1cccc(C)c1
[1], x1 = 1
Conditions | surface tension liquid-gas [mN/m]
303.15 K | 26.4
308.15 K | 25.91
313.15 K | 25.41
318.15 K | 24.91
323.15 K | 24.42
333.15 K | 23.44
343.15 K | 22.45

CC(=O)O [acetic acid] + Cc1ccccc1C
[1], x1 = 1
Conditions | surface tension liquid-gas [mN/m]
303.15 K | 26.4
308.15 K | 25.91
313.15 K | 25.41
318.15 K | 24.91
323.15 K | 24.42
333.15 K | 23.44
343.15 K | 22.45
